Test results reported in patent publication EP0338756B1, “Use of 1,2,4-trioxanes as antiparasitics and anthelmintics” (OXACO S.A., priority 1988, dated 1989).

Assays:
[1] = test system: Onchocerca gutturosa; assay: Onchocerca gutturosa motility, using parasites, medium, serum, cells and test drugs; conditions: with serum and cells
Protocol: (§1) Testing in vitro against Onchocerca gutturosa is a valid model for activity against Onchocerca volvulus. Testing of test drugs (Compounds 1, 2, 3, 4, 5, 7, 8, 9, 11, and 12 of Table 1) against the parasitic worms Onchocerca gutturosa was carried out in accordance with the method described in J Helminth (1987) 60, 271, firstly using parasites, medium, serum, cells and test drugs.

[2] = test system: Onchocerca gutturosa; assay: Tetrazolium colorimetric test (formazan formation), using parasites, medium, cells and test drug; conditions: 5x10⁻⁵ M printed for the test Compounds
Protocol: A suitable colorimetric assay uses formation of formazan, a blue dye, from tetrazolium cation generated by 3-[…] bromide (J Helminth (1987) 60, 271). Firstly, Compounds 1, 2, 3, 4, 5, 7, 8, 9, 11 and 12, along with artemisinin and arteether were tested using parasites, medium, cells and test drug.

[3] = test system: Onchocerca gutturosa; assay: Onchocerca gutturosa motility, using parasites, medium and drug; conditions: medium and drug only, time not given
Protocol: as §1, with “drugs. Secondly, test drugs (Compounds 2, 3, 4, 7, 8, 9 and 12 of Table 1) were tested using parasites, medium and drug. […] However, between 4 and 7 days, all the tested Compounds had completely immobilized the worms. Under these conditions, commercial anti-helminthic drugs and artemisinin also cut motility by some 30-40%.” for “drugs.”

CC1(C)OO[C@]2(c3ccccc3)CCC(c3ccccc3)=C[C@@H]2O1 (relative stereo) [Compound 12]
reduced motility ([1]; after 7 days): 100% | effect on motility ([1]; two to three days exposure): markedly inhibitory | inhibition of formazan formation [2]: more than 90%

CCO[C@H]1O[C@@H]2O[C@@]3(C)CC[C@H]4[C@H](C)CC[C@@H]([C@H]1C)[C@@]24OO3 [arteether]
reduced motility ([1]; after a day): 30%

C[C@@H]1CC[C@H]2[C@@H](C)C(=O)O[C@@H]3O[C@@]4(C)CC[C@@H]1[C@]32OO4 [artemisinin, Artemisinin]
effect on motility ([1]; a day's exposure): ineffective | cut motility [3]: 30-40%
